According to patent US20240217967A1, “INDOLINE DERIVATIVES AS DDRS INHIBITORS” (CHIESI FARMACEUTICI S.P.A., priority 2021, published 2024):

What was measured:
DDR2 = target: T1, DDR2 (Homo sapiens, UniProt Q16832); test: DDR2 LanthaScreen Europium Kinase Binding assay; conditions: binding affinity; IC50 converted in Ki using Cheng-Prusoff; read-out: Ki DDR2
T1 sequence (Q16832 22-855): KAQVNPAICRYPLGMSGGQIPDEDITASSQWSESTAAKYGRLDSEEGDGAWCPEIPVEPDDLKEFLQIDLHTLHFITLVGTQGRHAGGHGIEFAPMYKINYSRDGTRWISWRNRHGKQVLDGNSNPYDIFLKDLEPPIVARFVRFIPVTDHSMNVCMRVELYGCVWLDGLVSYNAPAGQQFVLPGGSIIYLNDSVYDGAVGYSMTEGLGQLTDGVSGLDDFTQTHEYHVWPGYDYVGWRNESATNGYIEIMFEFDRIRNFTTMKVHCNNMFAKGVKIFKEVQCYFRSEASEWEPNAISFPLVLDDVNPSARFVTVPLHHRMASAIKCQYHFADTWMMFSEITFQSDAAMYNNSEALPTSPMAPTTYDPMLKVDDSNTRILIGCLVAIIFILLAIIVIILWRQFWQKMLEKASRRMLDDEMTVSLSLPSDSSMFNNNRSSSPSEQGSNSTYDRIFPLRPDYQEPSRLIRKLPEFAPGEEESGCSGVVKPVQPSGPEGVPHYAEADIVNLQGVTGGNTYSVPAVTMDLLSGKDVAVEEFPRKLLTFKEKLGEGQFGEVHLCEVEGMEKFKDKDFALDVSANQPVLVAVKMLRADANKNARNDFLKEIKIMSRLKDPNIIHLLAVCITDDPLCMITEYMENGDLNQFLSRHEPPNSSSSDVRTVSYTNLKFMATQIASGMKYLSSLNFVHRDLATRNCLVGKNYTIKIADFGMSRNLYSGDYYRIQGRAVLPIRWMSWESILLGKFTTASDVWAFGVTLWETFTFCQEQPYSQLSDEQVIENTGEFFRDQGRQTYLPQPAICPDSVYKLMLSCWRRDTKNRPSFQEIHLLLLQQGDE
Method: (§1) DDR1 and DDR2 binding assays were performed using Life Technologies LanthaScreen™ Europium Kinase Binding assay. The compounds were incubated with 5 nM DDR1 (Carna Biosciences) or 5 nM DDR2 (Life Technologies) for 1 hour at room temperature in white 384-well OptiPlate (PerkinElmer), containing 20 nM or 10 nM Kinase Tracer 178 respectively and 2 nM Europium labelled anti-GST antibody (Life Technologies) in assay buffer (50 mM HEPES pH 7.5, 10 mM MgCI2, 1 mM EGTA and 0.01% BRIJ35). The ratio of fluorescence emission 665 nm/615 nm after excitation at 340 nm was obtained using the Tecan Spark 20M plate reader. IC50 values were determined in GraphPad Prism 7.0 software, using 4 parameter model: log(inhibitor) vs. response. IC50 values were converted in Ki using the Cheng-Prusoff equation (Ki=IC50/(1+[Tracer]/Kd).

DDR1 [1] = target: T2, DDR1 (Homo sapiens, UniProt Q08345); test: DDR1 LanthaScreen Europium Kinase Binding assay; conditions: binding affinity; IC50 converted in Ki using Cheng-Prusoff; read-out: Ki DDR1
T2 sequence (Q08345 19-913): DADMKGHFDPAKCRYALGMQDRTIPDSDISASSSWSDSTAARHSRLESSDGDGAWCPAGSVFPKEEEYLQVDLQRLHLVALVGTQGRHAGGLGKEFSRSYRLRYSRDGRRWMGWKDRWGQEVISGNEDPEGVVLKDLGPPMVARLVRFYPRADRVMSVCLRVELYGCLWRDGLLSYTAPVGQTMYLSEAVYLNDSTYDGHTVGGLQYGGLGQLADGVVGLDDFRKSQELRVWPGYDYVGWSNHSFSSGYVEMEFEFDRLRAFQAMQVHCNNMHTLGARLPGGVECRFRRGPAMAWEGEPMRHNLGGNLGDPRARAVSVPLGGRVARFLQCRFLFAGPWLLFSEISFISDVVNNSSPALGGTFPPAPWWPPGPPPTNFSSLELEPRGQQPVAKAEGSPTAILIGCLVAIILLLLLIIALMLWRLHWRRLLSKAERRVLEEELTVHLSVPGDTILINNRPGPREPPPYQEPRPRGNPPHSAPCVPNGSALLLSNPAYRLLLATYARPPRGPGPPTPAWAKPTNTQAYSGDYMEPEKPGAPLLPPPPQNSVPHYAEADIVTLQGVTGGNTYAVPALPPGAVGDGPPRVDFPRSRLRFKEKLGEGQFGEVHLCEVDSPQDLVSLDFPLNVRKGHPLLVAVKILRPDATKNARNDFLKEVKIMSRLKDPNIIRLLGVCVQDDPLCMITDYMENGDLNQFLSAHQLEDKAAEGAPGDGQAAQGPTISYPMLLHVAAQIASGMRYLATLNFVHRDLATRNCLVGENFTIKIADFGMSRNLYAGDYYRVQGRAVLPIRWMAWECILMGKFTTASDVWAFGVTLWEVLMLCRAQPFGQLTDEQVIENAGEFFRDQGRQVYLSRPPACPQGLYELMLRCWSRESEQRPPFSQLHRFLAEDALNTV
Method: as §1

DDR1 [2] = target: T2, DDR1; test: DDR1 cell based assay (PathHunter U2OS DDR1, collagen II stimulation); conditions: U2OS-DDR1 cells, bovine Type II Collagen stimulation
Method: The inhibition of DDR1 receptor activation by compounds was evaluated by PathHunter® U2OS DDR1 assay (Eurofins DiscoverX), according to the manufacturer's instructions. Briefly, U2OS-DDR1 cells were seeded in white 384-well plates at a density of 5000 cells/well and incubated for 2 hours at 37° C. and 5% CO2. Cells were then treated with compounds at different concentrations and incubated for 30 minutes, before stimulation with bovine Type II Collagen 20 μg/ml and incubation overnight at 37° C. and 5% CO2. PathHunter Detection Reagents were prepared according to the protocol provided by DiscoverX and 20 μl/well of this mix were added to each well. After incubating the plates for 1 hour at room temperature in the dark, luminescence signal was acquired with a plate reader. Raw data were normalized to vehicle control (0% for normalization) and positive control (100% for normalization; cells treated with 20 μg/ml collagen II) and IC50 parameters were calculated in GraphPad Prism 8.0 software, using sigmoidal dose-response curve fitting with variable slope.

Ki (DDR2) [µM] | Ki (DDR1 [1]) [µM] | IC50 (DDR1 [2]) [µM] | SMILES
< 0.025 | < 0.025 | 0.05 to 0.08 | Cc1cn(-c2cc(C(=O)Nc3ccc4c(c3)N(Cc3cnc5ccccn35)CC4)cc(C(F)(F)F)c2)cn1 [Example 23, N-(1-(imidazo[1,2-a]pyridin-3-ylmethyl)indolin-6-yl)-3-(4-methyl-1H-imidazol-1-yl)-5-(trifluoromethyl)benzamide]
0.025 to 0.05 | 0.025 to 0.05 | < 0.025 | Cc1cn(-c2cc(NC(=O)c3ccc4c(c3)N(Cc3cnc5[nH]ncc5c3)CC4C)cc(C(F)(F)F)c2)cn1 (stereo not drawn) [Example 24, 1-((1H-pyrazolo[3,4-b]pyridin-5-yl)methyl)-3-methyl-N-(3-(4-methyl-1H-imidazol-1-yl)-5-(trifluoromethyl)phenyl)indoline-6-carboxamide]
0.025 to 0.05 | < 0.025 | 0.025 to 0.05 | Cc1cn(-c2cc(NC(=O)c3ccc4c(c3)N(Cc3cnc5ccccn35)CC4C)cc(C(F)(F)F)c2)cn1 (stereo not drawn) [Example 25, 1-(imidazo[1,2-a]pyridin-3-ylmethyl)-3-methyl-N-(3-(4-methyl-1H-imidazol-1-yl)-5-(trifluoromethyl)phenyl)indoline-6-carboxamide]
< 0.025 | < 0.025 | 0.05 to 0.08 | Cc1cn(-c2cc(NC(=O)c3ccc4c(c3)N(C(=O)c3cnc5cnccn35)CC4C)cc(C(F)(F)F)c2)cn1 (stereo not drawn) [Example 29, 1-(imidazo[1,2-a]pyrazine-3-carbonyl)-3-methyl-N-(3-(4-methyl-1H-imidazol-1-yl)-5-(trifluoromethyl)phenyl)indoline-6-carboxamide]
0.025 to 0.05 | 0.025 to 0.05 | < 0.025 | CC1CN(Cc2cnc3[nH]ccc3c2)c2cc(C(=O)Nc3cccc(C(F)(F)F)c3)ccc21 (stereo not drawn) [Example 32, 1-((1H-pyrrolo[2,3-b]pyridin-5-yl)methyl)-3-methyl-N-(3-(trifluoromethyl)phenyl)indoline-6-carboxamide]
0.025 to 0.05 | < 0.025 | 0.05 to 0.08 | CC1CN(Cc2cnc3ccccn23)c2cc(C(=O)Nc3cccc(C(F)(F)F)c3)ccc21 (stereo not drawn) [Example 33, 1-(imidazo[1,2-a]pyridin-3-ylmethyl)-3-methyl-N-(3-(trifluoromethyl)phenyl)indoline-6-carboxamide]
< 0.025 | 0.025 to 0.05 | 0.025 to 0.05 | CC(C)(C)c1cc(NC(=O)c2ccc3c(c2)N(Cc2cnc4[nH]ncc4c2)CC3)n(-c2ccccc2)n1 [Example 40, 1-((1H-pyrazolo[3,4-b]pyridin-5-yl)methyl)-N-(3-(tert-butyl)-1-phenyl-1H-pyrazol-5-yl)indoline-6-carboxamide]
< 0.025 | < 0.025 | 0.025 to 0.05 | O=C(Nc1cc(F)cc(C(F)(F)F)c1)c1ccc2c(c1)N(Cc1cnc3cnccn13)CC2 [Example 41, N-(3-fluoro-5-(trifluoromethyl)phenyl)-1-(imidazo[1,2-a]pyrazin-3-ylmethyl)indoline-6-carboxamide]
< 0.025 | < 0.025 | < 0.025 | O=C(Nc1cccc(C(F)(F)F)c1)c1ccc2c(c1)N(Cc1cnc3cnccn13)CC2 [Example 42, 1-(imidazo[1,2-a]pyrazin-3-ylmethyl)-N-(3-(trifluoromethyl)phenyl)indoline-6-carboxamide]
< 0.025 | < 0.025 | 0.025 to 0.05 | O=C(Nc1cccc(OC(F)(F)F)c1)c1ccc2c(c1)N(Cc1cnc3cnccn13)CC2 [Example 43, 1-(imidazo[1,2-a]pyrazin-3-ylmethyl)-N-(3-(trifluoromethoxy)phenyl)indoline-6-carboxamide]
< 0.025 | < 0.025 | < 0.025 | O=C(Nc1cc(F)cc(OC(F)(F)F)c1)c1ccc2c(c1)N(Cc1cnc3cnccn13)CC2 [Example 44, N-(3-fluoro-5-(trifluoromethoxy)phenyl)-1-(imidazo[1,2-a]pyrazin-3-ylmethyl)indoline-6-carboxamide]
< 0.025 | < 0.025 | 0.025 to 0.05 | CC(C)(c1cc(NC(=O)c2ccc3c(c2)N(Cc2cnc4cnccn24)CC3)no1)C(F)(F)F [Example 45, 1-(imidazo[1,2-a]pyrazin-3-ylmethyl)-N-(5-(1,1,1-trifluoro-2-methylpropan-2-yl)isoxazol-3-yl)indoline-6-carboxamide]
0.025 to 0.05 | < 0.025 | 0.05 to 0.08 | COc1ccc(NC(=O)c2ccc3c(c2)N(Cc2cnc4cnccn24)CC3)cc1C(F)(F)F [Example 46, 1-(imidazo[1,2-a]pyrazin-3-ylmethyl)-N-(4-methoxy-3-(trifluoromethyl)phenyl)indoline-6-carboxamide]
< 0.025 | < 0.025 | 0.025 to 0.05 | CN(C)Cc1ccc(NC(=O)c2ccc3c(c2)N(Cc2cnc4cnccn24)CC3)cc1C(F)(F)F [Example 48, N-(4-((dimethylamino)methyl)-3-(trifluoromethyl)phenyl)-1-(imidazo[1,2-a]pyrazin-3-ylmethyl)indoline-6-carboxamide]
< 0.025 | < 0.025 | 0.05 to 0.08 | O=C(Nc1cc(CN2CCOCC2)cc(C(F)(F)F)c1)c1ccc2c(c1)N(Cc1cnc3cnccn13)CC2 [Example 49, 1-(imidazo[1,2-a]pyrazin-3-ylmethyl)-N-(3-(morpholinomethyl)-5-(trifluoromethyl)phenyl)indoline-6-carboxamide]
< 0.025 | < 0.025 | 0.025 to 0.05 | O=C(Nc1cc(CN2CCCC2)cc(C(F)(F)F)c1)c1ccc2c(c1)N(Cc1cnc3cnccn13)CC2 [Example 50, 1-(imidazo[1,2-a]pyrazin-3-ylmethyl)-N-(3-(pyrrolidin-1-ylmethyl)-5-(trifluoromethyl)phenyl)indoline-6-carboxamide]
< 0.025 | < 0.025 | 0.025 to 0.05 | CN(C)Cc1cc(NC(=O)c2ccc3c(c2)N(Cc2cnc4cnccn24)CC3)cc(C(F)(F)F)c1 [Example 51, N-(3-((dimethylamino)methyl)-5-(trifluoromethyl)phenyl)-1-(imidazo[1,2-a]pyrazin-3-ylmethyl)indoline-6-carboxamide]
< 0.025 | < 0.025 | 0.05 to 0.08 | O=C(Nc1cc(OCCN2CCCC2)cc(C(F)(F)F)c1)c1ccc2c(c1)N(Cc1cnc3cnccn13)CC2 [Example 52, 1-(imidazo[1,2-a]pyrazin-3-ylmethyl)-N-(3-(2-(pyrrolidin-1-yl)ethoxy)-5-(trifluoromethyl)phenyl)indoline-6-carboxamide]
< 0.025 | < 0.025 | 0.05 to 0.08 | O=C(Nc1cc(OCCN2CCOCC2)cc(C(F)(F)F)c1)c1ccc2c(c1)N(Cc1cnc3cnccn13)CC2 [Example 53, 1-(imidazo[1,2-a]pyrazin-3-ylmethyl)-N-(3-(2-morpholinoethoxy)-5-(trifluoromethyl)phenyl)indoline-6-carboxamide]
< 0.025 | < 0.025 | 0.05 to 0.08 | CN1CCC(Oc2ccc(NC(=O)c3ccc4c(c3)N(Cc3cnc5cnccn35)CC4)cc2C(F)(F)F)CC1 [Example 54, 1-(imidazo[1,2-a]pyrazin-3-ylmethyl)-N-(4-((1-methylpiperidin-4-yl)oxy)-3-(trifluoromethyl)phenyl)indoline-6-carboxamide]
0.025 to 0.05 | < 0.025 | < 0.025 | O=C(Nc1cccc(OC(F)(F)F)c1)c1ccc2c(c1)N(Cc1cnc3ccccn13)CC2 [Example 55, 1-(imidazo[1,2-a]pyridin-3-ylmethyl)-N-(3-(trifluoromethoxy)phenyl)indoline-6-carboxamide]
